Patent publication US10328085B2, “Cobalt porphyrins for the treatment of blood-related disorders” (UNIWERSYTET JAGIELLONSKI, priority 2014, dated 2019)

Legend:
[1] = singlet oxygen generation by flash photolysis; assay type: physicochemical; details: laser light at 355 nm
Protocol: FIG. 7—singlet oxygen generation quantum yield (ΦΔ) for CoPP and SnPP in reference to phenalenone, measured by flash photolysis.
Because of the fact that potential described side effects of administration of porphyrins are associated with photosensitization, causing the formation of toxic reactive oxygen species, it was evaluated if CoPP is a photosensitizer and thus may cause side effects. To this end, the ability to generate reactive oxygen species by CoPP was verified by flash photolysis. […] In contrast, in experiment with another porphyrin (SnPP) 89% of absorbed energy was used for generation of singlet oxygen (FIG. 7). It is therefore unlikely that CoPP will cause photosensitization, what often limits the clinical application of other compounds from the group of porphyrins.

C3H and C57BL6xFVB mice [2] = experiment: complete blood counts (hematology analyzer) in mice after CoPP; assay type: in vivo; details: for increase in number of granulocytes / increase in number of white blood cells (WBC) in blood compared to DMSO: three times at intervals of two days
Excerpt: The possibility of using CoPP for cell mobilization has been confirmed in experiments conducted on two different strains of mice: C3H (5 mice per group) and C57BL6xFVB (5-6 mice per group). The figures show:
FIG. 1—peripheral blood cell counts in C3H mice after administration of the test compounds (HCT—hematocrit, RBC—erythrocytes, WBC—leukocytes, LYM—lymphocytes, MON—monocytes, GRA—granulocytes, #—number of cells per mm^3, %—percentage of the population among all leukocytes; (ANOVA+Bonferroni test)
FIG. 2—peripheral blood cell counts in C57BL6xFVB strain after administration of CoPP; (test ANOVA+Bonferroni test)
(§1) CoPP was administered to mice intraperitoneally at a dose of 10 mg/kg of body weight, three times at intervals of two days. Control mice received only the solvent (DMSO). In one experiment tin protoporphyrin (SnPP) was also used.
(§2) The day after the last administration of CoPP the mice were sacrificed and samples were collected for analysis. Complete blood counts were obtained using a hematology analyzer. In addition, the phenotype and the quantity of leukocytes in the peripheral blood, bone marrow and spleen was analyzed in more detail using a flow cytometer. Moreover, concentrations of 32 cytokines and growth factors in plasma were analyzed. The results of analyzes indicate that mice that were treated with CoPP had increased number of white blood cells (WBC) in the blood compared to mice that received only DMSO (3-fold in C3H mice, 2-fold in C57BL6xFVB mice). In both strains, there was a significant increase in the number of granulocytes (6.7-fold in C3H mice, 4-fold in C57BL6xFVB mice). There were no changes in the parameters such as hematocrit (HCT) and the number of erythrocytes (RBC) (FIG. 1, FIG. 2)

C3H and C57BL6xFVB mice [3] = experiment: flow cytometry of peripheral blood granulocytes in mice; assay type: in vivo
Excerpt: FIG. 3—the percentage of granulocytes in peripheral blood in C3H mice after administration of the test compounds; (test ANOVA+Bonferroni test),
FIG. 4—the percentage of granulocytes in the peripheral blood of C57BL6xFVB mice after administration of CoPP; (test ANOVA+Bonferroni test),
CoPP is used in scientific experiments, both in vitro and in vivo as heme oxygenase-1 inducer. […] In some of the experiments tin protoporphyrin IX (SnPP), which is an inhibitor of the enzymatic activity of HO-1, was also used.
as §1
as §2, with “In both strains, there was a significant increase in the number of granulocytes (6.7-fold in C3H mice, 4-fold in C57BL6xFVB mice). There were no changes in the parameters such as hematocrit (HCT) and the number of erythrocytes (RBC) (FIG. 1, FIG. 2)” left out

[4] = tested on: cytokines and growth factors in plasma; experiment: cytokines and growth factors in plasma (Luminex); assay type: in vivo, mice
Protocol: FIG. 5—concentration of cytokines and growth factors in plasma of C3H mice after administration of test compounds; (test ANOVA+Bonferroni test),
FIG. 6—concentration of cytokines and growth factors in plasma of C57BL6xFVB mice after administration of CoPP; (test ANOVA+Bonferroni test),
as §1, §2
In order to investigate the mechanism responsible for the increase of the leukocytes (especially granulocytes) number, after administration of CoPP, the concentrations of cytokines and growth factors in the plasma were measured using the Luminex system. An increase in levels of granulocyte colony stimulating factor (G-CSF), chemokines MCP-1 (CCL2) and IP-10 (CXCL-10) and interleukin 6 was observed (FIG. 5, FIG. 6).

C57BL6xFVB mice = experiment: HSPC mobilization to blood, CoPP compared with G-CSF; assay type: in vivo; details: CoPP 10 mg/kg (15 μmol/kg) vs rhG-CSF 250 μg/kg, i.p. daily for five days
Protocol: FIG. 8—HSPC numbers in the blood of C57BL6xFVB mice treated with G-CSF and CoPP.
Effects of CoPP and exogenous G-CSF were compared. Mice were iterated with CoPP at the dose of 10 mg/kg (15 μmol/kg). Recombinant human G-CSF (rhG-CSF, Amgen) was used at the dose of 250 μg/kg. Compounds were injected i.p. daily for five days. Administration od CoPP mobilized higher number of HSPC (hematopoietic stem/progenitor cells) than administration of exogenous G-CSF (FIG. 8).

solubility = assay type: physicochemical; details: alkaline aqueous solutions
Excerpt: Cobalt porphyrins can be prepared by known methods. For example, cobalt protoporphyrin IX can be prepared using methods as described in: “Porphyrins and Metalloporphyrins” Ed. by K. M. Smith, Elsevier Scientific Pub. Co (1975) ISBN 0-444-41375-8 oraz Kenner, G. W., et al., Liebigs Ann. Chem. 1973, 1329-1338 and Burns, D. H., et al., J. Chem. Soc., Perkin Trans. 1, 1988, 3119. […] In the production process and the preparation of a medical agent cobalt protoporphyrin is proposed to be dissolved in an alkaline solution (eg. 0.2 M Na3PO4.12H20; ˜0.2 ml/ml final volume) and then with sterile water (˜0.7 ml/ml final volume), pH adjusted to 7.5-7.8 (eg. 0.3N HCl).

[5] = both strains, 10 mg/kg i.p., three times

Row | SMILES | absorbed energy used for generation of singlet oxygen [1] [%] | effect on the measured parameters (blood counts, granulocytes, cytokines) (C3H and C57BL6xFVB mice [2]; C3H mice, FIG. 1,3,5) | generation of singlet oxygen upon absorption of laser light [1] | increase in number of granulocytes (C3H and C57BL6xFVB mice [2]; C3H mice, 10 mg/kg i.p.) [fold] | increase in number of white blood cells (WBC) in blood compared to DMSO (C3H and C57BL6xFVB mice [2]; C3H mice, 10 mg/kg i.p.) [fold] | increase in number of granulocytes (C3H and C57BL6xFVB mice [2]; C57BL6xFVB mice, 10 mg/kg i.p.) [fold] | increase in number of white blood cells (WBC) in blood compared to DMSO (C3H and C57BL6xFVB mice [2]; C57BL6xFVB mice, 10 mg/kg i.p.) [fold] | hematocrit (HCT) (C3H and C57BL6xFVB mice [2]; [5]) | number of erythrocytes (RBC) (C3H and C57BL6xFVB mice [2]; [5]) | mobilization of cells from bone marrow in HO-1 KO mice (C3H and C57BL6xFVB mice [3]; HO-1 KO versus wild type mice, FIG. 4) | number of immature granulocytes (CD11b+/Ly6G low/Ly6C-/SCC mid phenotype) (C3H and C57BL6xFVB mice [3]; peripheral blood, flow cytometer) | plasma level of chemokine IP-10 (CXCL-10) [4] | plasma level of chemokine MCP-1 (CCL2) [4] | plasma level of granulocyte colony stimulating factor (G-CSF) [4] | plasma level of interleukin 6 [4] | number of HSPC mobilized compared with exogenous G-CSF (C57BL6xFVB mice) | solubility (solubility)
1 | C=Cc1c2[n-]c(c1C)/C=c1\[n-]/c(c(C)c1C=C)=C\c1[n-]c(c(CCC(=O)O)c1C)C=c1[n-]/c(c(C)c1CCC(=O)O)=C\2.[Sn+4] [SnPP, tin protoporphyrin IX, reference compound] | 89 | did not affect the majority of the measured parameters | – | – | – | – | – | – | – | – | – | – | – | – | – | – | –
2 | C=Cc1c(C)c2cc3[nH]c(cc4nc(cc5nc(cc1[nH]2)C(C)=C5CCC(=O)[O-])C(CCC(=O)[O-])=C4C)c(C)c3C=C.[Co+2] [CoPP, cobalt protoporphyrin IX] | – | – | does not generate singlet oxygen | 6.7 | 3 | 4 | 2 | no changes | no changes | works in a similar manner as in wild type mice | increase | increase | increase | increase | increase | higher number | soluble in alkaline aqueous solutions
